From patent publication US6140364A, “Arachidonic acid metabolite, 16-HETE” (The University of Vermont and State Agricultural College, priority 1996, dated 2000)
Values belong to the molecule of their own block, whether it stands above or below them.

What was measured:
neutrophil aggregation = test: Neutrophil aggregation (inventors' finding, method not given at the place); assay type: cell-based
human neutrophils = test: Agonist activity on human neutrophils; assay type: cell-based; details: ≤20 μM
[1] = tested on: basal human neutrophils (adhesion to a gelatin matrix); test: Neutrophil adhesion to gelatin matrix, basal (unstimulated); assay type: cell-based; details: for inhibition at 1 µM: Homo sapiens, Neutrophil, 10 min preincubation; for inhibition of neutrophil adhesion, basal: 20-HETE at ≤10 μM, 16-HETE isomers 10^-8 to 10^-5 M; for potency of neutrophil inhibition relative to the other stereoisomer: unstimulated and stimulated neutrophils
Description: (§1) Preparation of human polymorphonuclear leukocytes: Venous blood (60-70 ml) was collected from four healthy, normal volunteers into syringes containing heparin (1 U/ml). Polymorphonuclear leukocytes (PMNs) were isolated by a histopaque density gradient technique as previously described in Liu et al., Adhesion, Its role in Inflammatory Disease, Freeman and Co., New York, 1992, pp 189-192. Briefly, blood aliquots (6 ml) were layered over two layers (3 ml) of histopaque 1077 and 1119 in a conical centrifuge tube. The sample was then subjected to centrifugation at 100× g for 30 minutes at room temperature and the top layer, containing the neutrophils, was carefully collected. Hypotonic lysis was used to separate out the red blood cells. The neutrophils were then isolated from the sample by centrifugation (2000× g) and suspended in Hanks balanced salt solution (HBSS) containing 1 mM Ca^2+ and 0.8 mM Mg^2+ for studies involving arachidonic acid metabolism, and in M199 (with 1% BSA) for neutrophil adhesion assays. Total cells were counted using a hemocytometer and leukocytes were counted after staining with Wright-Giemsa stain. For each experiment, the cell preparations used contain ≥97% neutrophils, having ≥95% viability as determined by a trypan blue exclusion assay.
Neutrophil adhesion: Isolated neutrophils were resuspended in M199 containing 1% BSA with a final concentration of 3×10^6 cells per ml. Cells suspensions (1 ml) were incubated with or without a test compound, 16(S)-HETE, 16(R)-HETE, or 20-HETE (concentrations 1 nM to 10 μM) for 10 min and then placed into gelatin-coated wells and further incubated for 20 min at 37° C. The wells were washed three times with 0.5 ml of solution M199 to remove non-adherent cells. The adherent cells were then removed by addition of 0.4 ml of 0.25% trypsin-EDTA in 0.1 M PBS to the gelatin-coated wells and incubation for 10 min at 37° C. The incubates were transferred and the wells were washed with 0.1 ml of M199 solution. The amount of cells in combined solutions was counted. In some experiments, the adhesion of neutrophils was stimulated by addition of 1 U/ml of thrombin to neutrophil suspension immediately prior to the transfer of cells to the wells. Experiments were performed in duplicates for each concentration of HETE. The inhibition of adhesion was expressed as percent of cells remaining in suspension (non-adherent) relative to control. The range of adherent PMNs in control incubations was 6 to 23%. This was increased two-fold in the presence of thrombin.

[2] = tested on: oxygen free radicals (OFR) release stimulated by fMLP; test: fMLP-stimulated oxygen free radical (OFR) release, chemiluminescence, in diluted human blood; assay type: cell-based; details: 10 min, 1 μM HETE, fMLP 5×10^-7 M, N = 3 to 4, read-out: OFR Release (percent of inhibition from HETE untreated cells)
Description: (§2) Neutrophil activity: Stimulated neutrophil aggregation and oxygen free radical release were examined in whole human blood using a whole-blood aggregometer-chemiluminometer (Chronolog, Haverton, Pa.) as described Bednar et al. J. Thromb. Thrombol. 1, 179-185 (1995). Blood samples containing heparin (1 U/ml) as the anticoagulant were diluted in HBSS in proportion 1 to 9. Diluted blood aliquots (1 ml) were stirred (400 rpm) in a prewarmed (37° C.) siliconized cuvette containing cytochalasin b (5 μg/ml) and luminol (in 8 μl DMSO, 500 μM final concentration) and the test HETE (concentration 0.01 to 10 μM) for 10 min. Neutrophils were stimulated with a submaximal dose of FMLP (5×10^-7 M final concentration). The aggregation and chemiluminescence were simultaneously measured as changes of impedance and luminescence respectively. The fMLP-induced chemiluminescence was calculated as the peak height of the reaction.

[3] = tested on: thrombin-stimulated human neutrophils (adhesion to a gelatin matrix); test: Neutrophil adhesion to gelatin matrix, thrombin-stimulated; assay type: cell-based; details: for inhibition at 1 µM: Homo sapiens, Neutrophil, thrombin 1 U/ml, 3×10^6 cells/ml, 10 min preincubation
Description: as §1
Neutrophil adhesion: Isolated neutrophils were resuspended in M199 containing 1% BSA with a final concentration of 3×10^6 cells per ml. Cells suspensions (1 ml) were incubated with or without a test compound, 16(S)-HETE, 16(R)-HETE, or 20-HETE (concentrations 1 nM to 10 μM) for 10 min and then placed into gelatin-coated wells and further incubated for 20 min at 37° C. The wells were washed three times with 0.5 ml of solution M199 to remove non-adherent cells. The adherent cells were then removed by addition of 0.4 ml of 0.25% trypsin-EDTA in 0.1 M PBS to the gelatin-coated wells and incubation for 10 min at 37° C. […] The amount of cells in combined solutions was counted. […] The inhibition of adhesion was expressed as percent of cells remaining in suspension (non-adherent) relative to control. […]

[4] = tested on: neutrophil aggregation stimulated by fMLP; test: fMLP-induced neutrophil aggregation in diluted whole human blood; assay type: cell-based; details: for inhibition at 1 µM: 10 min, 1 μM HETE, N = 3 to 4, read-out: Aggregation (percent of inhibition from HETE untreated cells); for inhibition of fMLP-induced neutrophil aggregation: ≤10 μM
Description: as §2

[5] = tested on: platelet or other leukocyte; test: Platelet or other leukocyte activity or function
[6] = tested on: formation of product A by human neutrophils; test: Inhibition of arachidonic acid metabolism (formation of product A) in intact human neutrophils; assay type: cell-based; details: SKF 525A 100 μM, BW755C 94 μM, 10 min preincubation
Description: as §1, with “The neutrophils were then isolated from the sample by centrifugation (2000× g) and suspended in Hanks balanced salt solution (HBSS) containing 1 mM Ca^2+ and 0.8 mM Mg^2+ for studies involving arachidonic acid metabolism, and in M199 (with 1% BSA) for neutrophil adhesion assays.” left out, “assay. […]” for “assay.”
After ten minutes in arachidonic acid the reaction was terminated by the addition of cold methanol (four volumes). […] The effluent was passed through a UV detector (HP1050/ChemStation-Hewlett-Packard, Palo Alto, Calif.) and a radioactivity detector (Radiomatic, Meridian, Conn.) with a splitter (ratio 1:10) and collected in 1 ml fractions.

[7] = tested on: intact canine and human neutrophils; details: cited from earlier work
[8] = Neutrophil, fMLP 5×10^-7 M, diluted human blood

Structure (SMILES): CCCCC[C@H](O)/C=C/C=C\C/C=C\C/C=C\CCCC(=O)O [15-HETE]
inhibition of neutrophil aggregation (neutrophil aggregation): neither 20-HETE nor 15-HETE inhibited neutrophil aggregation

IC50 ([4]; Neutrophil, fMLP 5×10^-7 M, diluted human blood, read-out: IC50, inhibition of fMLP-induced neutrophil aggregation): 1200 nM
Structure (SMILES): CCCC[C@@H](O)/C=C\C/C=C\C/C=C\C/C=C\CCCC(=O)O [16(R)-HETE, 16(R)-hydroxy-5,8,11,14-eicosatetraenoic acid]
agonist activity on human neutrophils (human neutrophils): no detectable agonist activity
inhibition of neutrophil adhesion to gelatin ([1]; 10 μM, preincubation): completely inhibited
inhibition at 1 µM ([1]; gelatin matrix): 73 ± 11%
inhibition of neutrophil adhesion, basal [1]: inhibited neutrophil adhesion in a dose-dependent manner
preincubation time required to inhibit adhesion ([1]; gelatin matrix): 10 min
potency of neutrophil inhibition relative to the other stereoisomer [1]: more potent than the effect observed with the opposite stereoisomer
inhibition at 1 µM [2]: 8.9 ± 5.1%
inhibition at 1 µM [3]: 50 ± 4%
inhibition at 1 µM [4, 8]: 42 ± 11%

Structure (SMILES): CCCC[C@H](O)/C=C\C/C=C\C/C=C\C/C=C\CCCC(=O)O [16(S)-HETE, S-stereoisomer of 16-hydroxyeicosatetraenoic acid]
agonist activity on human neutrophils (human neutrophils): no detectable agonist activity
inhibition at 1 µM ([1]; gelatin matrix): 39 ± 8%
inhibition of neutrophil adhesion, basal [1]: inhibited neutrophil adhesion in a dose-dependent manner
potency of neutrophil inhibition relative to the other stereoisomer [1]: less potent
inhibition at 1 µM [2]: 5.6 ± 16.7%
inhibition at 1 µM [3]: 40 ± 14%
inhibition at 1 µM [4, 8]: 7 ± 3.5%
inhibition of fMLP-induced neutrophil aggregation [4]: not active

Structure (SMILES): CCCCC(O)/C=C\C/C=C\C/C=C\C/C=C\CCCC(=O)O (stereo not shown) [16-HETE, 16-hydroxyeicosatetraenoic acid]
effect on platelet or other leukocyte activity or function [5]: does not affect platelet or other leukocyte activity or function

Structure (SMILES): O=C(O)CCC/C=C\C/C=C\C/C=C\C/C=C\CCCCCO [20-HETE, reference compound]
agonist activity on human neutrophils (human neutrophils): no detectable agonist activity
inhibition of neutrophil adhesion, basal [1]: did not inhibit neutrophil adhesion
inhibition of neutrophil aggregation (neutrophil aggregation): neither 20-HETE nor 15-HETE inhibited neutrophil aggregation
inhibition at 1 µM [2]: 3.9 ± 13.4%
inhibition of neutrophil adhesion, thrombin-stimulated ([3]; thrombin-stimulated, 20-HETE at ≤10 μM, 16-HETE isomers 10^-8 to 10^-5 M): did not inhibit neutrophil adhesion
inhibition at 1 µM [4, 8]: 8.1 ± 2.6%
inhibition of fMLP-induced neutrophil aggregation [4]: not active

Structure (SMILES): NC1=NN(c2cccc(C(F)(F)F)c2)CC1 [BW755C]
inhibition of formation of product A [6]: not with BW755C

Structure (SMILES): CCCC(C(=O)OCCN(CC)CC)(c1ccccc1)c1ccccc1 [SKF525A]
inhibition of formation of product A [6]: can be inhibited with SKF525A
inhibition of formation of polar arachidonic acid metabolites [7]: formation can be inhibited

Structure (SMILES): [C-]#[O+] [carbon monoxide]
inhibition of formation of polar arachidonic acid metabolites [7]: formation can be inhibited
